Measurements published in the supplement of paper PMC11451515.

Test system: SEM cells
Assay: cell viability relative to DMSO control; higher = less cytotoxic
Conditions: 48 h
In short: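 Viability is a per-plate percentage relative to DMSO wells, with cell-free wells as background. CellTiter-Glo One luminescence was read after 48 h at 37°C on 1536-well plates (5 μl) of NOMO1 or SEM (500 cells/well) or P12-Ichikawa (1000 cells/well) leukemia cells. The cells had been adapted for at least four passages in each medium and pin-dosed with library compounds in DMSO from 47 μM to 0.79 nM in 11 threefold steps.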

[1] = HPLM + 10% dialyzed FBS, 0.000781 µM
[2] = HPLM + 10% dialyzed FBS, 0.00234 µM
[3] = HPLM + 10% dialyzed FBS, 0.00702 µM
[4] = HPLM + 10% dialyzed FBS, 0.0211 µM
[5] = HPLM + 10% dialyzed FBS, 0.0632 µM
[6] = HPLM + 10% dialyzed FBS, 0.19 µM
[7] = HPLM + 10% dialyzed FBS, 0.569 µM
[8] = HPLM + 10% dialyzed FBS, 1.71 µM
[9] = HPLM + 10% dialyzed FBS, 5.12 µM
[10] = HPLM + 10% dialyzed FBS, 15.4 µM
[11] = HPLM + 10% dialyzed FBS, 46.1 µM
[12] = RPMI 5 mM glucose + 10% FBS, 0.000781 µM
[13] = RPMI 5 mM glucose + 10% FBS, 0.00234 µM
[14] = RPMI 5 mM glucose + 10% FBS, 0.00702 µM
[15] = RPMI 5 mM glucose + 10% FBS, 0.0211 µM
[16] = RPMI 5 mM glucose + 10% FBS, 0.0632 µM
[17] = RPMI 5 mM glucose + 10% FBS, 0.19 µM
[18] = RPMI 5 mM glucose + 10% FBS, 0.569 µM
[19] = RPMI 5 mM glucose + 10% FBS, 1.71 µM
[20] = RPMI 5 mM glucose + 10% FBS, 5.12 µM
[21] = RPMI 5 mM glucose + 10% FBS, 15.4 µM
[22] = RPMI 5 mM glucose + 10% FBS, 46.1 µM
[23] = RPMI 5 mM glucose + 10% dialyzed FBS, 0.000781 µM
[24] = RPMI 5 mM glucose + 10% dialyzed FBS, 0.00234 µM
[25] = RPMI 5 mM glucose + 10% dialyzed FBS, 0.00702 µM
[26] = RPMI 5 mM glucose + 10% dialyzed FBS, 0.0211 µM
[27] = RPMI 5 mM glucose + 10% dialyzed FBS, 0.0632 µM
[28] = RPMI 5 mM glucose + 10% dialyzed FBS, 0.19 µM
[29] = RPMI 5 mM glucose + 10% dialyzed FBS, 0.569 µM
[30] = RPMI 5 mM glucose + 10% dialyzed FBS, 1.71 µM
[31] = RPMI 5 mM glucose + 10% dialyzed FBS, 5.12 µM
[32] = RPMI 5 mM glucose + 10% dialyzed FBS, 15.4 µM
[33] = RPMI 5 mM glucose + 10% dialyzed FBS, 46.1 µM

Row | SMILES | cell viability [1] | cell viability [2] | cell viability [3] | cell viability [4] | cell viability [5] | cell viability [6] | cell viability [7] | cell viability [8] | cell viability [9] | cell viability [10] | cell viability [11] | cell viability [12] | cell viability [13] | cell viability [14] | cell viability [15] | cell viability [16] | cell viability [17] | cell viability [18] | cell viability [19] | cell viability [20] | cell viability [21] | cell viability [22] | cell viability [23] | cell viability [24] | cell viability [25] | cell viability [26] | cell viability [27] | cell viability [28] | cell viability [29] | cell viability [30] | cell viability [31] | cell viability [32] | cell viability [33]
1 | COc1cc([C@@H]2c3cc4c(cc3[C@H](O)[C@H]3COC(=O)[C@H]23)OCO4)cc(OC)c1OC | 78.4% | 52.4% | 20% | 21.5% | 12.9% | 14.8% | 11.1% | 10.8% | 7.23% | 6.55% | 3.29% | 102% | 38.7% | 14.9% | 18.2% | 8.76% | 10.5% | 7.96% | 7.03% | 4.97% | 4.12% | 3.41% | 79.2% | 52.7% | 16.7% | 20.1% | 7.53% | 9.95% | 7.34% | 6.19% | 4.79% | 3.29% | 3.02%
2 | CCCCCCCN(CC)CCCC(O)c1ccc(NS(C)(=O)=O)cc1.CCCCCCCN(CC)CCCC(O)c1ccc(NS(C)(=O)=O)cc1.O=C(O)/C=C/C(=O)O (stereo not given) | 88.9% | 93.2% | 95.1% | 104% | 74.8% | 109% | 96.7% | 108% | 97.7% | 114% | 15% | 83.9% | 102% | 93.3% | 90.7% | 56.4% | 95.4% | 88.9% | 122% | 96.5% | 94% | 10.3% | 87.4% | 99.9% | 105% | 103% | 74.6% | 90.6% | 112% | 114% | 94.2% | 91.9% | 11.6%
3 | CCCC[N+]1(C)[C@@H]2CC(OC(=O)[C@H](CO)c3ccccc3)C[C@H]1[C@@H]1O[C@@H]12 (stereo not given in full) | 112% | 113% | 120% | 125% | 118% | 126% | 110% | 127% | 109% | 131% | 123% | – | – | – | – | – | – | – | – | – | – | – | – | – | – | – | – | – | – | – | – | – | –
4 | Cc1ccc([S+](=O)([O-])NC(=O)NN2CC3CCCC3C2)cc1 (stereo not given) | 57.6% | 102% | 89.1% | 106% | 101% | 100% | 96.9% | 86.1% | 58.7% | 18.7% | 9.78% | 55.2% | 93.6% | 77.9% | 94.5% | 106% | 94.4% | 80.8% | 76.6% | 43.7% | 14.9% | 9.35% | 50.2% | 98.7% | 84.5% | 96.6% | 109% | 87.8% | 84.7% | 67.7% | 39.3% | 26.8% | 13.1%
